Results published in US20130324609A1, “DEPRESSION DISORDER THERAPEUTICS WITH CREATINE ANALOGS” (UNIVERSITY OF UTAH RESEARCH FOUNDATION, priority 2010, published 2013).

Legend:
Type in all cases: in vivo, human
[1] = test system: females between 13-18 years of age with a primary diagnosis of MDD, fluoxetine-treated (SSRI-resistant depression); assay: Open-label adjunctive creatine study: Children's Depression Rating Scale-Revised (CDRS-R) raw score
Procedure: Approval for the study was obtained from the University of Utah Institutional Review Board (IRB). Informed consent consisted of written parental permission as well as written assent from participants. The study was conducted under U.S. Food and Drug Administration (FDA) Investigational New Drug Application #104,586. An external Data Safety and Monitoring Board vested with authority to halt the trial was established, and the study was conducted in accordance of the principles of Good Clinical Practice (GCP).
Participants were recruited through clinician referrals and IRB-approved advertising. Consecutive patients who met inclusion criteria were enrolled. Inclusion criteria included the following: females between 13-18 years of age with a primary diagnosis of MDD and depressive symptoms persisting for >2 weeks at baseline; fluoxetine treatment for >8 weeks with >4 weeks at a dose of >40 mg/day (if doses higher than 20 mg/day were not tolerated, participants could meet inclusion criteria by taking fluoxetine 20 mg/day for >8 weeks); and a current Children's Depression Rating Scale-Revised (CDRS-R) (Poznanski and Mokros 1996) raw score>40. Consistent with the preliminary nature of the study, few exclusion criteria were applied. For example, no restrictions were placed on concomitant medications or psychotherapy. The study's exclusion criteria were: pre-existing renal disease, proteinuria or microalbuminuria at baseline; contraindication to magnetic resonance scanning (e.g. ferromagnetic implants or claustrophobia); primary diagnosis other than MDD; active psychotic symptoms; high risk for suicidal behavior; positive pregnancy test; active alcohol or drug addiction; known or suspected mental retardation; and unstable medical condition.
(§1) Diagnoses were established with the Schedule for Affective Disorders and Schizophrenia for School-Age Children-Present and Lifetime Version (K-SADS-PL) (Kaufman et al. 1997). A complete blood count, metabolic panel, lipid profile, thyroid stimulating hormone, urinalysis and urine microalbumin were obtained to establish that participants were in generally good health, and to rule out the presence of undiagnosed medical conditions. The laboratory studies were repeated at the conclusion of treatment, to prospectively identify any abnormalities associated with creatine administration.
Participants with depression were treated with fixed-dose Creapure® brand of creatine monohydrate (AlzChem LLC, Trostberg, Germany) 4 grams by mouth daily for 8 weeks. At each study visit, the following rating scales were administered: the CDRS ? R, the Clinical Global Impressions scale (Guy 1976) and the Columbia-Suicide Severity Rating Scale (C-SSRS) (Posner 2010). Adverse events were recorded at each study visit. Change in CDRS-R raw score was the primary outcome measure, with C-SSRS results and treatment-emergent adverse events serving as secondary clinical outcomes. ^31P-MRS brain scans were acquired with a Siemens 3 Tesla MRS scanner (Siemens AG, Munich, Germany) that is FDA-approved for clinical use. Two dimensional chemical shift imaging free induction decay (2D CSI FID) pulse sequence with an Fourier voxel resolution of 25×25×25 mm3, Field of View (FOV)=200×200×25 mm3, TR/TE=3000/2.3 ms, vector size=1024, bandwidth=2500 Hz, data collection time=11.2 minutes and the number of averages=24 was implemented to collect 2D CSI FID data using a ^31P/1H double-tuned volume head coil (Clinical MR Solutions LLC, Brookfield, Wis., USA). The proton channel was used for localization, high-resolution anatomic image acquisition and shimming Shimming was performed over the excited volume. 3D high-resolution images used for localization of CSI data were collected using inversion recovery magnetization prepared rapid gradient echo (MP-RAGE) pulse sequence with isotropic 1 mm3 resolution. […]

[2] = test system: brain phosphorus metabolites (PCr, b-NTP, pH); assay: 31P-MRS brain scans of phosphorus metabolites at baseline and after 8 weeks of creatine
Procedure: Healthy control female adolescents were recruited for comparison ^31P-MRS scans through IRB-approved advertising. Following informed consent, the K-SADS-PL and CDRS-R were administered to establish the absence of psychiatric disorder(s) or depressive symptoms.
(§2) Participants with depression were treated with fixed-dose Creapure® brand of creatine monohydrate (AlzChem LLC, Trostberg, Germany) 4 grams by mouth daily for 8 weeks. At each study visit, the following rating scales were administered: the CDRS ? R, the Clinical Global Impressions scale (Guy 1976) and the Columbia-Suicide Severity Rating Scale (C-SSRS) (Posner 2010). Adverse events were recorded at each study visit. Change in CDRS-R raw score was the primary outcome measure, with C-SSRS results and treatment-emergent adverse events serving as secondary clinical outcomes. ^31P-MRS brain scans were acquired with a Siemens 3 Tesla MRS scanner (Siemens AG, Munich, Germany) that is FDA-approved for clinical use. Two dimensional chemical shift imaging free induction decay (2D CSI FID) pulse sequence with an Fourier voxel resolution of 25×25×25 mm3, Field of View (FOV)=200×200×25 mm3, TR/TE=3000/2.3 ms, vector size=1024, bandwidth=2500 Hz, data collection time=11.2 minutes and the number of averages=24 was implemented to collect 2D CSI FID data using a ^31P/1H double-tuned volume head coil (Clinical MR Solutions LLC, Brookfield, Wis., USA). The proton channel was used for localization, high-resolution anatomic image acquisition and shimming Shimming was performed over the excited volume. 3D high-resolution images used for localization of CSI data were collected using inversion recovery magnetization prepared rapid gradient echo (MP-RAGE) pulse sequence with isotropic 1 mm3 resolution. The imaging parameters were as follows: TR/TE=2000/3.37 ms, FOV=256×192×144 mm3, and matrix size=256×1 92×144, for a total acquisition time of 4.8 minutes. Participants were instructed during the informed consent process, and again before entering the scanner, that they could discontinue scanning at any point if they experienced discomfort (e.g. claustrophobic anxiety). Non-study personnel trained in research patient advocacy attended each scanning session. The study protocol included two ^31P-MRS scans: one at baseline and a follow-up scan 8 weeks later.
^31P MRS data were analyzed using jMRUI software (jMRUI version 4.0, European Community). A Hamming filter was applied to reduce signal contamination from neighbouring voxels before performing 2D Fast Fourier Transform (FFT) on the raw data. Nine voxel signals from a slice with a thickness of 25 mm located at the corpus callosum, anterior commissure and posterior commissure were summed after 2D FFT. Each voxel FID was apodized with a 10 Hz exponential line broadening before zero filling and FFT. The zero-order and first-order phase correction was performed in all spectrums.
We calculated the signal amplitudes for individual metabolites using AMARES (Advanced Method for Accurate, Robust and Efficient Spectral fitting of MRS data), which is a non-linear, time domain fitting algorithm within the jMRUI software application. The estimated amplitudes of phosphorus metabolites are reported with respect to the total ^31P or beta-NTP amplitude within the time domain signals. The ^31P MRS signal amplitude for each metabolite is directly related to the integrated area under the modeled spectrum in the frequency domain.
The depressed participants' ^31P-MRS brain scans were performed at baseline (prior to the first dose of creatine) and repeated at the conclusion of treatment. We enrolled and acquired baseline scans from ten healthy female adolescent controls; six agreed to return eight weeks later for a second scan. Statistical analyses were performed using JMP 8 (SAS Inc., Cary, N.C. USA). Because this was an open-label pilot study, all analyses were considered exploratory and no correction for multiple hypothesis testing was applied.

[3] = test system: suicidality in female adolescents with MDD; assay: Columbia-Suicide Severity Rating Scale (C-SSRS) monitoring during creatine treatment; conditions: for C-SSRS During Treatment With Creatine (Weeks): monohydrate
Procedure: as §2
One participant reported no history of suicidal thoughts or behavior, but the others each endorsed significant histories of suicidality, indicating the severity and chronicity of the participants. Three of the participants had attempted suicide between 5 months and 5 years prior to study entry; at intake, four participants reported suicidal ideation in the 2 weeks prior to their baseline visit. During the treatment phase of the study, two participants reported no suicidality. Three participants reported suicidal ideation as treatment began, which lasted between 2 and 6 weeks. […]

[4] = Adverse events, vital signs and laboratory tests during creatine treatment
Text: as §1, §2
Participants' vital signs were recorded at each study visit. […] Although not measured systematically, participant and parent acceptance of creatine as a treatment intervention appeared good, and there were no premature terminations due to concerns about the study drug.

[5] = entry vs week 8, creatine 4 g daily adjunctive to fluoxetine, n=5

CN(CC(=O)O)C(=N)N.O [creatine, creatine monohydrate]
mean CDRS-R score after eight weeks of treatment ([1]; creatine monohydrate 4 g by mouth daily for 8 weeks, adjunctive to fluoxetine, n=5, mean raw score at entry 69): 30.6 | decrease of mean CDRS-R raw score [1, 5]: 56% | mean reduction in CDRS-R raw score (primary outcome measure) [1, 5]: 38.4 | CDRS-R (Week) ([1]; participant 1, week 8, baseline 82, fluoxetine 40 mg): 24 (8) | CDRS-R (Week) ([1]; participant 2, week 8, baseline 76, fluoxetine 40 mg): 44 (8) | CDRS-R (Week) ([1]; participant 3, week 8, baseline 59, fluoxetine 40 mg): 29 (8) | CDRS-R (Week) ([1]; participant 4, week 8, baseline 66, fluoxetine 20 mg): 23 (8) | CDRS-R (Week) ([1]; participant 5, week 8, baseline 62, fluoxetine 40 mg): 33 (8) | mean CDRS-R raw score at week ten ([1]; two weeks after discontinuation of creatine, compared with week 8): lower than at the conclusion of treatment | PCr-TP, Mean 8 Weeks ([2]; MDD group n=5 after 8 weeks creatine 4 g daily, mean baseline 0.1525, p 0.020 paired t-test): 0.1610 | b-NTP/TP, Mean 8 Weeks ([2]; MDD group n=5 after 8 weeks creatine, mean baseline 0.125, p 0.729): 0.128 | PCr/b-NTP, Mean 8 Weeks ([2]; MDD group n=5 after 8 weeks creatine, mean baseline 1.221, p 0.528): 1.270 | pH, Mean 8 Weeks ([2]; MDD group n=5 after 8 weeks creatine, mean baseline 7.059, p 0.648): 7.071 | change in mean PCr/b-NTP ratio ([2]; following 8 weeks of treatment): no change | change in mean b-NTP ([2]; following 8 weeks of treatment): no change | change in mean pH ([2]; following 8 weeks of treatment): no change | change in mean PCr ([2]; following 8 weeks of treatment, p=0.020, paired t-test, 2-tailed): significant increase | duration of suicidal ideation reported as treatment began ([3]; in vivo): 2-6 weeks | outcome of participants' suicidal thoughts ([3]; in vivo): resolved during treatment with creatine and did not recur | C-SSRS During Treatment With Creatine (Weeks) ([3]; participant 3, baseline: wish to be dead 1 week prior to study drug): Wish to be Dead (1) | C-SSRS During Treatment With Creatine (Weeks) ([3]; participant 4, baseline: wish to be dead 1 week prior to study entry): Wish to be Dead (1-5) | Serious Adverse Events (SAEs) ([4]; in vivo): no Serious Adverse Events | changes in weight, blood pressure or heart rate ([4]; in vivo): No statistically significant changes | course of adverse events ([4]; in vivo): self-limited | microalbuminuria or serum creatinine outside the reference range ([4]; in vivo): No participant developed microalbuminuria or a serum creatinine outside the reference range | tolerability ([4]; in vivo): well tolerated | withdrawal due to treatment emergent adverse effects or lack of efficacy ([4]; in vivo): No participant withdrew | Adverse Events ([4]; participant 3, * = possibly or probably related to study drug, monohydrate): H1N1 influenza*
